In US3984411A, “Pyrimidines” (Societe Generale de Recherches et d'Applications …, priority 1975, dated 1976):
Structures can show the parent of a compound that is named as a salt. Where two headings read alike, the source gives them in different places.

Assays:
[1] = system: glycemia; assay: Hypoglycemiant effect in the rat, oral, 4 days treatment; format: in vivo, male rat CD (Charles RIVER); details: for hypoglycemiant effects (in words): oral, 4 days
Experimental: The hypoglycemiant properties have been studied on the male rat CD (Charles RIVER) of 200-250 g, of which the glycemia is controlled after 4 days of daily treatment by oral application. The serum glucose is determined by the method of W. S. Hoffman, J. Biol. Chem., 120, 51 (1937). Groups of 10 rats are used and the hypoglycemiant activity is expressed by the percentage variation of the average glycemia of the treated animals compared with that of the controls. The statistical significance of the differences observed is determined by application of the STUDENT test.

[2] = system: mice CD 1 (Charles RIVER); assay: Toxicity (LD 50) in mice by intravenous and oral application; format: in vivo; details: mice CD 1, oral; cumulative quantal method
Text: (§1) The toxicities of the compounds according to the invention have been determined on mice CD 1 (Charles RIVER) by intravenous and oral applications. The LD 50, calculated by the cumulative quantal method of J. J. Reed and H. Muench, Am.

[3] = as above; format: in vivo; details: mouse, in vivo, cumulative quantal method
Text: as §1

[4] = system: cholesterolemia; assay: Hypocholesterolemiant effect in the rat, oral, 4 days treatment; format: in vivo, rat CD (Charles RIVER); details: for hypocholesterolemiant activities (in words): oral, 4 days
Experimental: The hypocholesterolemiant effects of the products according to the invention have been studied on the rat CD (Charles RIVER) by oral application. The animals, divided into groups of 10, are treated daily by gastric probe for 4 consecutive days. Four hours after the last administration, the rats are killed and their blood is collected in order to proceed to the determination of the amount of cholesterol according to the method of J. Levine and B. Zak, Clin. Acta, 10, 381 (1964).
The activity of the substances is evaluated by calculating the percentage variation of the average amount of cholesterol of the animals treated with respect to that of the control animals. Then the statistical significance of the differences observed is determined by application of the STUDENT test.

[5] = mice CD 1, intravenous, read-out: Intense toxicities to mice (LD 50), intravenous
[6] = 50 mg/kg taken orally, all values significant at p = 0.001
[7] = 100 mg/kg taken orally, significant at p = 0.001, except Example 18 at p = 0.05
[8] = mice CD 1, oral, read-out: Intense toxicities to mice (LD 50), oral
[9] = 100 mg/kg taken orally, significant at p = 0.001
[10] = 300 mg/kg taken orally, significant at p = 0.001

Structure (SMILES) | Intense toxicities to mice (LD 50), oral [2] | LD50 [3, 5] [mg/kg] | hypocholesterolemiant activities (in words) [4] | Variation of the cholesterolemia in % with respect to the controls after 4 days treatment [4, 7] [%] | LD50 [3, 8] [mg/kg] | Percentage variation of the glycemia compared with the controls after 4 days treament [1, 10] [%] | hypoglycemiant effects (in words) [1] | other results
COc1c(OC2CCN(C)CC2)nc(N2CCOCC2)nc1OC1CCN(C)CC1 [Example 14, 2-morpholino-4,6-di[(N-methyl-4'-piperidyl)oxy]-5-methoxy-pyrimidine] | atoxic at 900 | 67 |  |  |  |  |  | Percentage variation of the glycemia compared with the controls after 4 days treament ([1]; 200 mg/kg taken orally, significant at p = 0.001): -24%
Cc1c(OC2CCN(C)CC2)nc(N2CCOCC2)nc1OC1CCN(C)CC1 [Example 15, 2-moropholino-4,6-di[(N-methyl-4'-piperidyl)oxy]-5-methyl-pyrimidine] | atoxic at 900 | 81 | remarkable hypocholesterolemiant activities |  |  |  |  | Percentage variation of the glycemia compared with the controls after 4 days treament ([1]; 50 mg/kg taken orally, significant at p = 0.05): -12%; Variation of the cholesterolemia in % with respect to the controls after 4 days treatment [4, 6]: -31%
CCc1c(OC2CCN(C)CC2)nc(N2CCOCC2)nc1OC1CCN(C)CC1 [Example 16, 2-morpholino-4,6-di[(N-methyl-4'-piperidyl)oxy]-5-ethyl-pyrimidine dihydrobromide] |  | 54 | remarkable hypocholesterolemiant activities | -60 | ~525 |  |  | 
CCCCc1c(OC2CCN(C)CC2)nc(N2CCOCC2)nc1OC1CCN(C)CC1 [Example 17, 2-morpholino-4,6-di[(N-methyl-4'-piperidyl)oxy]-5-n-butyl-pyrimidine dihydrochloride] |  |  |  | -36 | ~225 |  |  | 
CN1CCC(Oc2nc(N3CCOCC3)nc(OC3CCN(C)CC3)c2-c2ccc(Cl)cc2)CC1 [Example 18, 2-morpholino-4,6-di[(N-methyl-4'-piperidyl)oxy]-5-p-chlorophenyl-pyrimidine] |  | 20 |  | -14 | ~600 | -35 | especially large hypoglycemiant effects | Percentage variation of the glycemia compared with the controls after 4 days treament [1, 9]: -29%; Variation of the cholesterolemia in % with respect to the controls after 4 days treatment [4, 10]: -44%
CCOc1c(OC2CCN(C)CC2)nc(N2CCOCC2)nc1OC1CCN(C)CC1 [Example 19, 2-morpholino-4,6-di[(N-methyl-4'-piperidyl)oxy]-5-ethoxy-pyrimidine dihydrochloride] |  | 70 |  |  | ~600 | -43 | especially large hypoglycemiant effects | 
CN1CCC(Oc2nc(N3CCOCC3)nc(OC3CCN(C)CC3)c2Oc2ccc(Cl)cc2)CC1 [Example 20, 2-morpholino-4,6-di[(N-methyl-4'-piperidyl)oxy]-5-p-chlorophenoxy-pyrimidine] |  |  | remarkable hypocholesterolemiant activities | -47 | > 900 | -27 | especially large hypoglycemiant effects | 
CN1CCC(Oc2nc(N3CCOCC3)nc(OC3CCN(C)CC3)c2Cc2ccccc2)CC1 [Example 21, 2-morpholino-4,6-di[(N-methyl-4'-piperidyl)oxy]-5-benzyl-pyrimidine] |  | 40 |  | -39 | ~800 |  | especially large hypoglycemiant effects | Percentage variation of the glycemia compared with the controls after 4 days treament [1, 9]: -27%
CN1CCC(Oc2nc(N3CCOCC3)nc(OC3CCN(C)CC3)c2Cl)CC1 [Example 22, 2-morpholino-4,6-di[(N-methyl-4'-piperidyl)oxy]-5-chloro-pyrimidine] | atoxic at 900 |  | remarkable hypocholesterolemiant activities | -45 |  |  |  | Variation of the cholesterolemia in % with respect to the controls after 4 days treatment [4, 6]: -19%
CN1CCC(Oc2cc(OC3CCN(C)CC3)nc(N3CCOCC3)n2)CC1 [Example 23, 2-morpholino-4,6-di[(N-methyl-4'-piperidyl)oxy]-pyrimidine] | atoxic at 900 |  |  |  |  |  |  | Percentage variation of the glycemia compared with the controls after 4 days treament ([1]; 400 mg/kg taken orally, significant at p = 0.001): -20%
